Data: PubChem BioAssay (NCI)
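Cells were grown in 96-well plates and exposed to each compound for 48 hours at five concentrations; endpoints were interpolated linearly between bracketing concentrations, or set to the highest concentration if not reached. GI50 marks 50% less growth. TGI is the concentration that stops growth completely.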

Assays:
Test in all cases: NCI-60 cell line screen, 48 h
NCI-H23 lung = tested on: NCI-H23 lung
HCT-116 colon = tested on: HCT-116 colon
OVCAR-8 ovarian = tested on: OVCAR-8 ovarian
786-0 renal = tested on: 786-0 renal
OVCAR-3 ovarian = tested on: OVCAR-3 ovarian
DU-145 prostate = tested on: DU-145 prostate
LOX IMVI melanoma = tested on: LOX IMVI melanoma
SNB-19 CNS = tested on: SNB-19 CNS
SW-620 colon = tested on: SW-620 colon
HL-60(TB) leukemia = tested on: HL-60(TB) leukemia
PC-3 prostate = tested on: PC-3 prostate
K-562 leukemia = tested on: K-562 leukemia
HCT-15 colon = tested on: HCT-15 colon
SF-295 CNS = tested on: SF-295 CNS
RPMI-8226 leukemia = tested on: RPMI-8226 leukemia
SK-MEL-2 melanoma = tested on: SK-MEL-2 melanoma
EKVX NSCLC = tested on: EKVX NSCLC
MOLT-4 leukemia = tested on: MOLT-4 leukemia
T-47D breast = tested on: T-47D breast
CCRF-CEM leukemia = tested on: CCRF-CEM leukemia
HCC-2998 colon = tested on: HCC-2998 colon
MDA-MB-231 breast = tested on: MDA-MB-231 breast
COLO 205 colon = tested on: COLO 205 colon
HS 578T breast = tested on: HS 578T breast
M14 melanoma = tested on: M14 melanoma
SN12C renal = tested on: SN12C renal
UO-31 renal = tested on: UO-31 renal
OVCAR-4 ovarian = tested on: OVCAR-4 ovarian
NCI-H226 lung = tested on: NCI-H226 lung
HOP-92 NSCLC = tested on: HOP-92 NSCLC
A549 NSCLC = tested on: A549 NSCLC
TK-10 renal = tested on: TK-10 renal
SNB-75 CNS = tested on: SNB-75 CNS
SF-539 CNS = tested on: SF-539 CNS
NCI-H460 lung = tested on: NCI-H460 lung
ACHN renal = tested on: ACHN renal
NCI-H522 lung = tested on: NCI-H522 lung
KM12 colon = tested on: KM12 colon
CAKI-1 renal = tested on: CAKI-1 renal
SF-268 CNS = tested on: SF-268 CNS
UACC-257 melanoma = tested on: UACC-257 melanoma
A498 renal = tested on: A498 renal
U251 CNS = tested on: U251 CNS
BT-549 breast = tested on: BT-549 breast
SK-MEL-5 melanoma = tested on: SK-MEL-5 melanoma
OVCAR-5 ovarian = tested on: OVCAR-5 ovarian
MDA-MB-435 = tested on: MDA-MB-435
SK-MEL-28 melanoma = tested on: SK-MEL-28 melanoma
MCF7 breast = tested on: MCF7 breast
SK-OV-3 ovarian = tested on: SK-OV-3 ovarian
NCI/ADR-RES ovarian = tested on: NCI/ADR-RES ovarian
MALME-3M melanoma = tested on: MALME-3M melanoma
UACC-62 melanoma = tested on: UACC-62 melanoma
HT29 colon = tested on: HT29 colon
IGROV1 ovarian = tested on: IGROV1 ovarian
SR leukemia = tested on: SR leukemia
HOP-62 NSCLC = tested on: HOP-62 NSCLC

For `O=C1C[C@@H](c2ccc(O)cc2)[C@@]2(O1)C(=O)O[C@H]([C@@H](O)CO)[C@@H]2O`, the TGI (NCI-H23 lung) was > 100 µM, the TGI (HCT-116 colon) was > 100 µM and the TGI (OVCAR-8 ovarian) was > 100 µM. The TGI (786-0 renal) was > 100 µM, the TGI (OVCAR-3 ovarian) was > 100 µM and the TGI (DU-145 prostate) was > 100 µM. The TGI (LOX IMVI melanoma) was > 100 µM, the TGI (SNB-19 CNS) was > 100 µM and the TGI (SW-620 colon) was > 100 µM. For the same molecule, the TGI (HL-60(TB) leukemia) was > 100 µM, the TGI (PC-3 prostate) was > 100 µM and the TGI (K-562 leukemia) was > 100 µM. For the same molecule, the TGI (HCT-15 colon) was > 100 µM, the TGI (SF-295 CNS) was > 100 µM and the TGI (RPMI-8226 leukemia) was > 100 µM. For the same molecule, the TGI (SK-MEL-2 melanoma) was > 100 µM, the TGI (EKVX NSCLC) was > 100 µM and the TGI (MOLT-4 leukemia) was > 100 µM. The TGI (T-47D breast) was > 100 µM, the TGI (CCRF-CEM leukemia) was > 100 µM and the TGI (HCC-2998 colon) was > 100 µM. The TGI (MDA-MB-231 breast) was > 100 µM, the TGI (COLO 205 colon) was > 100 µM and the TGI (HS 578T breast) was > 100 µM. The TGI (M14 melanoma) was > 100 µM, the TGI (SN12C renal) was > 100 µM and the TGI (UO-31 renal) was > 100 µM. For the same molecule, the TGI (OVCAR-4 ovarian) was > 100 µM, the TGI (NCI-H226 lung) was > 100 µM and the TGI (HOP-92 NSCLC) was > 100 µM. The TGI (A549 NSCLC) was > 100 µM, the TGI (TK-10 renal) was > 100 µM and the TGI (SNB-75 CNS) was > 100 µM. For the same molecule, the TGI (SF-539 CNS) was > 100 µM, the TGI (NCI-H460 lung) was > 100 µM and the TGI (ACHN renal) was > 100 µM. The TGI (NCI-H522 lung) was > 100 µM, the TGI (KM12 colon) was > 100 µM and the TGI (CAKI-1 renal) was > 100 µM. For the same molecule, the TGI (SF-268 CNS) was > 100 µM, the TGI (UACC-257 melanoma) was > 100 µM and the TGI (A498 renal) was > 100 µM. The TGI (U251 CNS) was > 100 µM, the TGI (BT-549 breast) was > 100 µM and the TGI (SK-MEL-5 melanoma) was > 100 µM. The TGI (OVCAR-5 ovarian) was > 100 µM, the TGI (MDA-MB-435) was > 100 µM and the TGI (SK-MEL-28 melanoma) was > 100 µM. For the same molecule, the TGI (MCF7 breast) was > 100 µM, the TGI (SK-OV-3 ovarian) was > 100 µM and the TGI (NCI/ADR-RES ovarian) was > 100 µM. For the same molecule, the TGI (MALME-3M melanoma) was > 100 µM, the TGI (UACC-62 melanoma) was > 100 µM and the TGI (HT29 colon) was > 100 µM. The TGI (IGROV1 ovarian) was > 100 µM.

`O=C(/C=C/c1cccc(O)c1)c1cccc(-n2cc(-c3ccc(Cl)cc3)[nH]c2=O)c1` was tested, and the GI50 (NCI-H23 lung) was 2.78 µM, the TGI (NCI-H23 lung) was 10.6 µM and the GI50 (HCT-116 colon) was 1.23 µM. The TGI (HCT-116 colon) was 2.52 µM, the GI50 (OVCAR-8 ovarian) was 0.998 µM and the TGI (OVCAR-8 ovarian) was > 100 µM. It also gave a GI50 (786-0 renal) of 1.57 µM, a TGI (786-0 renal) of 2.99 µM and a GI50 (OVCAR-3 ovarian) of 1.56 µM. It also gave a TGI (OVCAR-3 ovarian) of 3.44 µM, a GI50 (DU-145 prostate) of 1.68 µM and a TGI (DU-145 prostate) of 4.18 µM. For the same molecule, the GI50 (LOX IMVI melanoma) was 1.57 µM, the TGI (LOX IMVI melanoma) was 3.11 µM and the GI50 (SNB-19 CNS) was 1.92 µM. The TGI (SNB-19 CNS) was 4.37 µM, the GI50 (SW-620 colon) was 1.62 µM and the TGI (SW-620 colon) was 4.74 µM. It also gave a GI50 (HL-60(TB) leukemia) of 1.09 µM, a TGI (HL-60(TB) leukemia) of 3.51 µM and a GI50 (K-562 leukemia) of 0.405 µM. The TGI (K-562 leukemia) was 3.63 µM, the GI50 (HCT-15 colon) was 2.34 µM and the TGI (HCT-15 colon) was 10.5 µM. For the same molecule, the GI50 (SF-295 CNS) was 1.79 µM, the TGI (SF-295 CNS) was 3.88 µM and the GI50 (RPMI-8226 leukemia) was 1.55 µM. It also gave a TGI (RPMI-8226 leukemia) of 4.64 µM, a GI50 (SK-MEL-2 melanoma) of 2.07 µM and a TGI (SK-MEL-2 melanoma) of 4.67 µM. The GI50 (EKVX NSCLC) was 2.4 µM, the TGI (EKVX NSCLC) was 9.62 µM and the GI50 (MOLT-4 leukemia) was 0.535 µM. The TGI (MOLT-4 leukemia) was 6.31 µM, the GI50 (T-47D breast) was 1.92 µM and the TGI (T-47D breast) was 6.03 µM. It also gave a GI50 (CCRF-CEM leukemia) of 1.76 µM, a TGI (CCRF-CEM leukemia) of 9.97 µM and a GI50 (HCC-2998 colon) of 13.7 µM. For the same molecule, the TGI (HCC-2998 colon) was 27.6 µM, the GI50 (MDA-MB-231 breast) was 3.35 µM and the TGI (MDA-MB-231 breast) was 17.3 µM. It also gave a GI50 (COLO 205 colon) of 2.29 µM, a TGI (COLO 205 colon) of 4.95 µM and a GI50 (HS 578T breast) of 4 µM. The TGI (HS 578T breast) was 44 µM, the GI50 (M14 melanoma) was 2.01 µM and the TGI (M14 melanoma) was 4.44 µM. It also gave a GI50 (SN12C renal) of 1.95 µM, a TGI (SN12C renal) of 5.93 µM and a GI50 (UO-31 renal) of 0.558 µM. The TGI (UO-31 renal) was 3.46 µM, the GI50 (SR leukemia) was 0.217 µM and the TGI (SR leukemia) was 1.07 µM. For the same molecule, the GI50 (OVCAR-4 ovarian) was 2.21 µM, the TGI (OVCAR-4 ovarian) was 8.96 µM and the GI50 (NCI-H226 lung) was 2.31 µM. For the same molecule, the TGI (NCI-H226 lung) was 5.5 µM, the GI50 (HOP-92 NSCLC) was 1.6 µM and the TGI (HOP-92 NSCLC) was 5.41 µM. For the same molecule, the GI50 (A549 NSCLC) was 3.55 µM, the TGI (A549 NSCLC) was > 100 µM and the GI50 (TK-10 renal) was 2.83 µM. For the same molecule, the TGI (TK-10 renal) was 9.13 µM, the GI50 (SNB-75 CNS) was 1.46 µM and the TGI (SNB-75 CNS) was 3.04 µM. It also gave a GI50 (SF-539 CNS) of 1.68 µM, a TGI (SF-539 CNS) of 3.22 µM and a GI50 (NCI-H460 lung) of 2.41 µM. It also gave a TGI (NCI-H460 lung) of 5.99 µM, a GI50 (ACHN renal) of 1.84 µM and a TGI (ACHN renal) of 4.13 µM. The GI50 (NCI-H522 lung) was 1.65 µM, the TGI (NCI-H522 lung) was 4.36 µM and the GI50 (KM12 colon) was 1.34 µM. For the same molecule, the TGI (KM12 colon) was 3 µM, the GI50 (CAKI-1 renal) was 1.72 µM and the TGI (CAKI-1 renal) was 4.07 µM. The GI50 (SF-268 CNS) was 1.78 µM, the TGI (SF-268 CNS) was 3.94 µM and the GI50 (UACC-257 melanoma) was 4.07 µM. It also gave a TGI (UACC-257 melanoma) of 26.3 µM, a GI50 (A498 renal) of 3.71 µM and a TGI (A498 renal) of 16.1 µM. It also gave a GI50 (U251 CNS) of 0.588 µM, a TGI (U251 CNS) of 2.15 µM and a GI50 (HOP-62 NSCLC) of 2.36 µM. It also gave a TGI (HOP-62 NSCLC) of 4.88 µM, a GI50 (BT-549 breast) of 1.45 µM and a TGI (BT-549 breast) of 3.72 µM. For the same molecule, the GI50 (SK-MEL-5 melanoma) was 1.53 µM, the TGI (SK-MEL-5 melanoma) was 3.36 µM and the GI50 (MDA-MB-435) was 2.06 µM. For the same molecule, the TGI (MDA-MB-435) was 6.64 µM, the GI50 (SK-MEL-28 melanoma) was 3.64 µM and the TGI (SK-MEL-28 melanoma) was 15.9 µM. It also gave a GI50 (MCF7 breast) of 1.29 µM, a TGI (MCF7 breast) of 3.76 µM and a GI50 (SK-OV-3 ovarian) of 4.22 µM. For the same molecule, the TGI (SK-OV-3 ovarian) was 17.2 µM, the GI50 (NCI/ADR-RES ovarian) was 2.2 µM and the TGI (NCI/ADR-RES ovarian) was 5.96 µM. For the same molecule, the GI50 (MALME-3M melanoma) was 1.83 µM, the TGI (MALME-3M melanoma) was 6.16 µM and the GI50 (UACC-62 melanoma) was 1.85 µM. It also gave a TGI (UACC-62 melanoma) of 4.27 µM, a GI50 (HT29 colon) of 1.9 µM and a TGI (HT29 colon) of 3.99 µM. It also gave a GI50 (IGROV1 ovarian) of 1.92 µM and a TGI (IGROV1 ovarian) of 6.38 µM.
